Measured values published in article PMC4908180 (American Journal of Human Genetics, 2016).

Target: 6His-tagged human FADS isoform 2 (FADS2), WT (Homo sapiens, UniProt Q8NFF5)
Experiment: UV/Vis spectra
Type: binding
Conditions: reaction product, non-covalent; bound flavin as purified

Sequence of 6His-tagged human FADS isoform 2 (FADS2), WT (Q8NFF5 98-587): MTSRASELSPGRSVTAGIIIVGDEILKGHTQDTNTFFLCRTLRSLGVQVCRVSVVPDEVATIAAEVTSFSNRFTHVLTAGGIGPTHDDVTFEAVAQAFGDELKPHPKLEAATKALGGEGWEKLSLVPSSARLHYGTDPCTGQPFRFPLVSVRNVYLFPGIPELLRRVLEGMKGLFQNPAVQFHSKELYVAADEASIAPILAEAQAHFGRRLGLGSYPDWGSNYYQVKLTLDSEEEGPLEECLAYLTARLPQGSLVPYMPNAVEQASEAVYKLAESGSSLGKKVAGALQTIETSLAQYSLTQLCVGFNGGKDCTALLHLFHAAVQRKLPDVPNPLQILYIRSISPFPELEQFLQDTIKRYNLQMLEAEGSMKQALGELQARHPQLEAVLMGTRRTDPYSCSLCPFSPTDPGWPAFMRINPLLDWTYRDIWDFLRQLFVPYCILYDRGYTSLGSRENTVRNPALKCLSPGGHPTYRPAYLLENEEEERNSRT

Cc1cc2nc3c(=O)[nH]c(=O)nc-3n(C[C@H](O)[C@H](O)[C@H](O)COP(=O)(O)OP(=O)(O)OC[C@H]3O[C@@H](n4cnc5c(N)ncnc54)[C@H](O)[C@@H]3O)c2cc1C [FAD]
UV/Vis spectra (FAD saturation of purified protein): Spectrophotometric analysis of the purified WT, p.Ser495del, and p.Arg530Cys FADS2 proteins
